From ChEMBL document CHEMBL1201862, “PubChem BioAssay data set” (2004)
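Interpolation was linear, between the two tested concentrations surrounding the appropriate level; five concentrations were tested over 48 hours in 96-well plates. The concentration for 50% growth inhibition is given as GI50.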 Active and inactive are the calls of the source. Cut-off read from the data, not from the text of the source: active = GI50 up to about 1.1 µM and inactive = higher.

Experiments:
Assay in all cases: growth of human tumour cells (NCI), 48 h
[1] = test system: MOLT-4
[2] = test system: K562
[3] = test system: UO-31
[4] = test system: CCRF-CEM
[5] = test system: M14
[6] = test system: LOX IMVI
[7] = test system: SNB-19
[8] = test system: RPMI-8226
[9] = test system: SF-295
[10] = test system: SR
[11] = test system: OVCAR-3
[12] = test system: A498
[13] = test system: SK-MEL-28
[14] = test system: IGROV-1
[15] = test system: NCI-H460
[16] = test system: TK-10
[17] = test system: CAKI-1
[18] = test system: PC-3
[19] = test system: MCF7

SMILES | GI50 [1] | GI50 [2] | GI50 [3] | GI50 [4] | GI50 [5] | GI50 [6] | GI50 [7] | GI50 [8] | GI50 [9] | GI50 [10] | GI50 [11] | GI50 [12] | GI50 [13] | GI50 [14] | GI50 [15] | GI50 [16] | GI50 [17] | GI50 [18] | GI50 [19]
COc1ccc(OC(=O)CC2Cc3cc(OC)c(OC)c(OC)c3-c3ccc(SC)c(=O)cc32)cc1 (stereo not given) | 0.387 µM (active) | 0.0805 µM (active) | 0.792 µM (active) | 0.184 µM (active) | 0.34 µM (active) | 0.172 µM (active) | 0.12 µM (active) | 0.128 µM (active) | 0.0794 µM (active) | 0.463 µM (active) | 0.185 µM (active) | 0.0332 µM (active) | 0.698 µM (active) | 1.85 µM (inactive) | 0.245 µM (active) | 29.7 µM (inactive) | – | – | –
CC(=O)N1[C@H](C(=O)O)CS[C@H]1c1ccncc1 | > 100 µM (inactive) | > 100 µM (inactive) | > 100 µM (inactive) | > 100 µM (inactive) | > 100 µM (inactive) | > 100 µM (inactive) | > 100 µM (inactive) | > 100 µM (inactive) | > 100 µM (inactive) | > 100 µM (inactive) | > 100 µM (inactive) | > 100 µM (inactive) | > 100 µM (inactive) | > 100 µM (inactive) | > 100 µM (inactive) | > 100 µM (inactive) | > 100 µM (inactive) | – | –
Cc1nc([N+](=O)[O-])cn1CC(=N)N | > 100 µM (inactive) | > 100 µM (inactive) | > 100 µM (inactive) | > 100 µM (inactive) | > 100 µM (inactive) | > 100 µM (inactive) | > 100 µM (inactive) | > 100 µM (inactive) | > 100 µM (inactive) | > 100 µM (inactive) | > 100 µM (inactive) | > 100 µM (inactive) | > 100 µM (inactive) | > 100 µM (inactive) | > 100 µM (inactive) | > 100 µM (inactive) | – | – | –
COc1ccccc1NC(=O)CC(=O)N1N=C(C)C(/N=N/c2ccc(S(N)(=O)=O)cc2)C1=O (stereo not given) | > 100 µM (inactive) | – | > 100 µM (inactive) | – | > 100 µM (inactive) | > 100 µM (inactive) | > 100 µM (inactive) | > 100 µM (inactive) | > 100 µM (inactive) | > 100 µM (inactive) | > 100 µM (inactive) | > 100 µM (inactive) | > 100 µM (inactive) | > 100 µM (inactive) | > 100 µM (inactive) | > 100 µM (inactive) | > 100 µM (inactive) | – | –
CC(=O)[O-].[O-]c1c(Cl)cc(Cl)cc1/C=N/Nc1ccccn1.[Zn+2] | 0.183 µM (active) | 0.372 µM (active) | 0.31 µM (active) | 0.244 µM (active) | 0.387 µM (active) | 0.798 µM (active) | 3.86 µM (inactive) | 0.325 µM (active) | 1.47 µM (inactive) | 0.16 µM (active) | 0.268 µM (active) | > 100 µM (inactive) | 1.57 µM (inactive) | 1.96 µM (inactive) | 1.38 µM (inactive) | – | – | – | –
O=C1C=CC(=C(c2ccc(O)cc2)c2ccc(O)cc2)C=C1 [AURIN] | 4.71 µM (inactive) | 2.94 µM (inactive) | 17 µM (inactive) | 2.39 µM (inactive) | 13.3 µM (inactive) | 10 µM (inactive) | 15.6 µM (inactive) | 3.85 µM (inactive) | 12.5 µM (inactive) | 2.36 µM (inactive) | 7 µM (inactive) | 17.7 µM (inactive) | 12.1 µM (inactive) | 13.6 µM (inactive) | 15.8 µM (inactive) | 19 µM (inactive) | 15.2 µM (inactive) | – | –
Cc1cccc(NC(=S)Nc2ccccc2Cl)n1 | > 100 µM (inactive) | > 100 µM (inactive) | > 100 µM (inactive) | > 100 µM (inactive) | > 100 µM (inactive) | > 100 µM (inactive) | 25.1 µM (inactive) | > 100 µM (inactive) | 32 µM (inactive) | > 100 µM (inactive) | > 100 µM (inactive) | 24.9 µM (inactive) | > 100 µM (inactive) | 30.1 µM (inactive) | 59.3 µM (inactive) | 34.8 µM (inactive) | 27.4 µM (inactive) | > 100 µM (inactive) | > 100 µM (inactive)
CCOC(=O)N1CCc2cc(OC)c(OC)cc2/C1=C/c1ccc(OC)c(OC)c1 | 33.2 µM (inactive) | 35.5 µM (inactive) | 27.8 µM (inactive) | 29 µM (inactive) | 82.8 µM (inactive) | 52.2 µM (inactive) | 58.3 µM (inactive) | 19.3 µM (inactive) | 52.2 µM (inactive) | 34.1 µM (inactive) | 61.4 µM (inactive) | 56.4 µM (inactive) | > 100 µM (inactive) | > 100 µM (inactive) | – | > 100 µM (inactive) | – | – | –
O=C1Sc2sc(=S)sc2SC1c1ccccc1 (stereo not given) | 31.6 µM (inactive) | 32.7 µM (inactive) | 39 µM (inactive) | 33 µM (inactive) | – | 30.8 µM (inactive) | > 73.1 µM (inactive) | 46.9 µM (inactive) | > 81.1 µM (inactive) | – | 29.8 µM (inactive) | > 100 µM (inactive) | > 45.6 µM (inactive) | > 100 µM (inactive) | 80.7 µM (inactive) | – | 1 µM (active) | – | 67.9 µM (inactive)
CCCCCCCCCCCCCCCCCC(=O)OCC(CN(C)CCN(C)C)OC(=O)CCCCCCCCCCCCCCCCC (stereo not given) | 27.1 µM (inactive) | 15.8 µM (inactive) | > 100 µM (inactive) | 42.9 µM (inactive) | > 100 µM (inactive) | > 100 µM (inactive) | > 100 µM (inactive) | > 100 µM (inactive) | 63.4 µM (inactive) | 35.9 µM (inactive) | > 100 µM (inactive) | > 100 µM (inactive) | > 100 µM (inactive) | > 100 µM (inactive) | > 100 µM (inactive) | > 100 µM (inactive) | > 100 µM (inactive) | – | –
Nc1cc(N2CCOCC2)nc(=O)n1-c1ccccc1 | > 100 µM (inactive) | > 100 µM (inactive) | > 100 µM (inactive) | > 100 µM (inactive) | > 100 µM (inactive) | > 100 µM (inactive) | > 100 µM (inactive) | > 100 µM (inactive) | > 100 µM (inactive) | > 100 µM (inactive) | > 100 µM (inactive) | > 100 µM (inactive) | > 100 µM (inactive) | > 100 µM (inactive) | > 100 µM (inactive) | – | > 100 µM (inactive) | > 100 µM (inactive) | > 100 µM (inactive)
COc1cccc(NC(=O)CC(=O)N2N=C(N3c4ccccc4Sc4ccccc43)CC2c2ccccc2)c1 (stereo not given) | > 100 µM (inactive) | – | > 100 µM (inactive) | – | > 100 µM (inactive) | > 100 µM (inactive) | > 100 µM (inactive) | > 100 µM (inactive) | > 100 µM (inactive) | > 100 µM (inactive) | > 100 µM (inactive) | > 100 µM (inactive) | > 100 µM (inactive) | > 100 µM (inactive) | > 100 µM (inactive) | > 100 µM (inactive) | > 100 µM (inactive) | – | –
